Data on two compounds can be found in patent US20100036088A1, “Selective poly-N-substituted glycine antibiotics” (priority 2008, published 2010).

The structures appear in SMILES notation. Square brackets hold non-standard residues; d marks the D form. Peptide text beside a SMILES is read from it. Nspe = C[C@H](NCC(=O)O)c1ccccc1; Nlys = NCCCCNCC(=O)O

In data set [1] the test system is Staphyloccus aureus (ATCC #25923). The experiment in a line: Murine intraperitoneal infection model. It counts as in vivo. To be noted: mouse, 4 mg/kg I.P.; eleven mice treated with 1-Nhis6,12. Here is the method:
Using a murine peritoneal injection mouse model, the ability of peptoids to treat infection was evaluated in vivo. The results from three separate studies of peptoid 1 and two of peptoid 1-Nhis6,12 against saline treated controls are shown in FIG. 7. The horizontal line represents the geometric mean of each population.
Murine intraperitoneal infection model. Bacteria was prepared by inoculating 5 mL of MHB with a single colony of Staphyloccus aureus (ATCC #25923) from a freshly streaked plate and grown overnight at 37 C. The following morning, the bacteria was subcultured by diluting 1/3 in MHB and grown for approximately 1.5 hours. The bacteria were then diluted 10-fold in a 5% mucin in PBS solution and thoroughly mixed. A sample was reserved to later determine the amount of bacteria the mice received.
Mice were weighed, marked, and injected I.P. with 200 uL of S. aureus inoculum. Four hours post infection, mice were treated I.P. with 4 mg/kg peptoid (˜100 ug per mouse). The infection is allowed to proceed overnight. Mice were euthanized by CO2 asphyxiation after 24 hours, and the peritoneal cavity was exposed and lavaged with 5 mL PBS. The lavage was mixed and reserved on ice until plating. […] Colonies were counted the following day, and the CFU/ml of each sample was calculated. […]

The test system of data set [2] is A549 lung epithelial cells. The experiment in a line: MTS assay, metabolic inhibition. Here is the method:
The biocompatibility of selected oligomers with A549 lung epithelial cells was evaluated using the MTS [3-(4,5-dimethylthiazol-2-yl)-5-(3-carboxymethoxyphenyl)-2-(4-sulfophenyl)-2H-tetrazolium] assay.
MTS Assays. A549 carcinoma-derived lung epithelial cells (ATTC CCL-185) were cultured in Ham's F12K media (ATTC, Manassas, Va.). A peptoid solution plate (100 μL/well) was prepared by serial dilution of aqueous peptoid stocks in media. Peptoid solutions were transferred onto a 96-well plate of day-old cell monolayers containing 100 μL/well media with ˜5000 cells/well. MTS reagent (Promega Corporation, Madison, Wis.) (40 μL/well) was added to each well and the plate was incubated at 37° C. for 3 h, after which absorbance at 490 nm was determined. Percent inhibition was determined as [1−(A−Atest blank)/(Acontrol−Ablank)]×100, where A is the absorbance of the test well and Acontrol the average absorbance of wells with cells exposed to media and MTS (no peptoid). Atest blank (media, MTS, and peptoid) and Ablank (media and MTS) were background absorbances measured in the absence of cells. The average of six replicates are reported, and error bars show one standard deviation.
(In general: Formazan colour is commonly taken as a measure of viable cells.)

For the compound `C[C@@H](c1ccccc1)N(CC(N)=O)C(=O)CN(C(=O)CN(CCCCN)C(=O)CN(C(=O)CN(C(=O)CN(CCCCN)C(=O)CN(C(=O)CN(C(=O)CN(CCCCN)C(=O)CN(C(=O)CN(C(=O)CNCCCCN)[C@@H](C)c1ccccc1)[C@@H](C)c1ccccc1)[C@@H](C)c1ccccc1)[C@@H](C)c1ccccc1)[C@@H](C)c1ccccc1)[C@@H](C)c1ccccc1)[C@@H](C)c1ccccc1` [compound 1, H-(NLys-Nspe-Nspe)4-NH2] (H-[Nlys][Nspe][Nspe][Nlys][Nspe][Nspe][Nlys][Nspe][Nspe][Nlys][Nspe][Nspe]-NH2), the “mice that died prematurely during the exposure period” value in data set [1] is recorded as “no mice”. As for `C[C@@H](c1ccccc1)N(CC(N)=O)C(=O)CN(C(=O)CN(CCCCN)C(=O)CN(C(=O)CN(C(=O)CN(CCCCN)C(=O)[C@@H]1CCCN1C(=O)CN(C(=O)CN(CCCCN)C(=O)CN(C(=O)CN(C(=O)CNCCCCN)[C@@H](C)c1ccccc1)[C@@H](C)c1ccccc1)[C@@H](C)c1ccccc1)[C@@H](C)c1ccccc1)[C@@H](C)c1ccccc1)[C@@H](C)c1ccccc1` [1-Pro6, H-Nlys-Nspe-Nspe-Nlys-Nspe-L-Pro-(Nlys-Nspe-Nspe)2-NH2] (H-[Nlys][Nspe][Nspe][Nlys][Nspe]P[Nlys][Nspe][Nspe][Nlys][Nspe][Nspe]-NH2), the “ID10 relative to that of pexiganan” value in data set [2] came to 10 times.
